From patent US20100021989A1, “COMPOSITIONS AND METHODS OF CONTROLLING AND ADMINISTERING REDOX SPECIFIC FORMS OF DRUGS, FOODS AND DIETARY SUPPLEMENTS” (priority 2008, published 2010)
Read-outs that look alike come from different tables or passages of the source.

Experiments:
[1] = Toxicity, Neutral Red Uptake; conditions: host cells
Bcl-xL = Bcl-xL (Homo sapiens, UniProt Q07817); conditions: Kitada et al., 2003; cited from earlier work
HSV-1 = HSV-1 inactivation: virus mixed with compound, infectivity titrated on Vero cells (reduction of virus titer); assay type: cell-based, herpes simplex virus 1; conditions: varying pH
Protocol: (§1) Experimental—HSV-1 and 2: Herpes simplex viruses were titrated by inoculation of 10-fold dilutions (HSV-1 was inoculated into Vero cell cultures, and HSV-2 was inoculated into CV1 cultures) in 96-well microtiter tissue culture plates. A virus dilution (0.1 ml) in RPMI 1640 with 1% fetal bovine serum (MM) was inoculated into each well with three wells per dilution. The plates were kept for 2 to 5 days, depending on the virus, and examined daily for cytopathic effect. Virus titers were calculated by the method of Reed and Muench (1938).
(§2) About 10^5 50% tissue culture infective doses (TCID50s) of virus were mixed with varying concentrations (12.5, 25, 50, 75 and 100 μM) of reduced and oxidized EGCG in MM and incubated at 37° C. for 30 min. The following samples were tested: The reduced form of EGCG (#1); the partially oxidized form of EGCG (#2); the quinone or fully oxidized form of EGCG with the addition of a copper catalyst (#3); and quinone or fully oxidized form of EGCG with the addition of a zinc catalyst (#4). In Samples #3 and #4, the addition of the copper and zinc catalysts, respectively, raised the pH to 9.0-9.5. These compounds were totally oxidized, thereby taking a quinone form. […]
(§3) Virus mixed with MM alone was used as a control. […] The 10^−1 to 10^−5 dilutions were inoculated into monolayers of Vero or CV1 cells, and the virus titers were determined as described above. […]

HSV-2 = HSV-2 inactivation: virus mixed with compound, infectivity titrated on CV1 cells (reduction of virus titer); assay type: cell-based, herpes simplex virus 2; conditions: varying pH
Protocol: as §1, §2, §3

HSV-1 (herpes simplex 1) = assay: Antiviral drug screen of EGCG, HSV-1; assay type: cell-based
HSV-2 (herpes simplex 2) = assay: Antiviral drug screen of EGCG, HSV-2; assay type: cell-based
[2] = test system: HCMV (human cytomegalovirus); assay: Antiviral drug screen of EGCG, HCMV; assay type: cell-based
[3] = test system: VZV (varicella zoster virus); assay: Antiviral drug screen of EGCG, VZV; assay type: cell-based
[4] = test system: multidrug-resistant strain (33591) of Staphylococcus aureus; assay: Antibacterial assay, pre-incubation then colony-forming units counted; assay type: cell-based; conditions: for Killing of bacteria (cfu): 0.08% EGCG
Protocol: Antibacterial activity: EGCG was tested as an antibacterial agent against a multidrug-resistant strain (33591) of Staphylococcus aureus. After pre-incubating the cells with various concentrations of EGCG at pH 6, 7.5, and 8.5, cells were plated and colony-forming units (cfu) were counted as a measure of efficacy (FIG. 12).

[5] = assay type: physicochemical
Text: An electrochemical cell was fabricated using a fine porosity glass frit in one-inch-diameter glass tubing. The electrochemical cell houses the counter electrode and keeps the Ag/AgCl reference electrode and platinum working electrode separate from the counter electrode. This addition to the system allowed the preparation of bulk solution. The working electrode and reference electrode compartment was continuously stirred using a small stir bar and a magnetic stirrer to minimize gradient effects at the working electrode. The EGCG solutions were oxidized using a positive potential to a visual end point. UV-visible spectral data were collected during these experiments, including the absorbance at 270 nm and 320 nm, corresponding to the phenol and quinone forms of EGCG, respectively. In addition, the open cell potential was recorded as experiments progressed. The active redox potentials and experimental endpoints were determined based on current and visual color changes to oligomers. Due to solution evaporation over time, the ratio of absorbance at 320 nm divided by the absorbance at 270 nm was determined in order to account for overall absorption increases. […] In addition, the visual change in solution color from clear to yellow and pink was also monitored as an indicator of degree of oxidation. Stirred EGCG solutions in 0.1 M phosphate buffer with 0.1 M KCl at pH 6.0 were monitored. The open circuit potential was initially 220 mV. […] A duplicate solution was left uncovered on the table next to the electrochemical cell as the control. After seven hours, no change in either solution at 270 and 320 nm was found. At this point the experimental potential was increased to 1000 mV for a further 16 hours (Table 3A). […] The pH of the solutions remained 6.0 throughout the experiment. All data support the forced oxidation of EGCG at pH 6.0. Solutions were allowed to sit for two more days to observe the stability of the electrochemically-induced changes (Table 3C). Solutions were pH-modified following electrochemical oxidation to observe stability. […] These samples were open to air, and no other precautions were taken to prevent oxidation by atmospheric oxygen.

[6] = assay type: physicochemical; remark: listed apart in the source
Text: UV-Visible Absorption Spectra vs. pH: EGCG solutions undergo an immediate spectral absorption shift as the pH increases from acidic to alkaline, with a change noted at pH 7 when a peak at 320 nm appears and the dominant phenol peak at 272 nm begins to decrease (FIG. 3A). The 320 nm peak likely represents the absorbance of the quinone form of EGCG. […] However, if the alkaline solution is re-acidified within minutes, the reaction is reversible. […] EPR vs. pH study of EGCG: The EPR and UV-visible spectra of EGCG, stabilized with 0.2 M MgCl2, were measured as a function of pH (i.e., 6.03, 6.54, 7.03, 7.57, 8.09, 8.56, 9.10, 9.56). A corresponding increase in a peak at ˜314 nm and a g=2 EPR spectrum occurred with increasing pH. […] This is in agreement with the known stabilizing effect on semiquinone free radicals by divalent cations like Mg^+2. […] The multiple peaks and valleys in FIGS. 5a and 5b are the fine structure detail of a high concentration radical solution. EPR detects unpaired spinning electrons due to the absorption of microwaves in an applied magnetic field. The peak splitting is due to interaction of the lone electron's spin magnetic field with environmental magnetic fields. […]

[7] = cited from earlier work
[8] = pH 7.4; cited from earlier work
Vero cells = assay: Toxicity to Vero cells, Cell Titer 96 Aqueous Cell Proliferation Assay
[9] = Control (no potential), pH 6.0, 43 hours
[10] = Control (no potential), pH 6.0, 55 hours
[11] = Control (no potential), pH 6.0, 68 hours
[12] = Control (no potential, uncovered), pH 6.0, 23 hours
[13] = Experiment, pH 6.0, 800 mV 7 h then 1000 mV 16 h, 23 hours
[14] = Experiment, pH 6.0, 1500 mV from 23 h, 43 hours
[15] = Experiment, pH 6.0, 1500 mV from 23 h, 55 hours
[16] = Experiment, pH 6.0, 1500 mV from 23 h, 68 hours
[17] = Experiment, pH 6.0, left to sit after electrochemical oxidation, 73 hours
[18] = Experiment, pH 6.0, left to sit after electrochemical oxidation, 79 hours
[19] = Experiment, pH 6.0, left to sit after electrochemical oxidation, 120 hours
[20] = cyclic voltammetry (Kilmartin and Hsu, 2003)

Bcl-xL, sequence (Q07817 whole entry): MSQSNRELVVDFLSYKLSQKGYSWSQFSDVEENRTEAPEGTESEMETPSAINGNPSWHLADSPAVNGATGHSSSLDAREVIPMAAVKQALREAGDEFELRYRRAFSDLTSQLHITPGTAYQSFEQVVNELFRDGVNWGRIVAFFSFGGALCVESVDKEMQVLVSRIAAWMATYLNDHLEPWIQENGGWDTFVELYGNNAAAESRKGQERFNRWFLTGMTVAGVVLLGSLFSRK

Work on `Nc1nc2c(ncn2COCCO)c(=O)[nH]1` [ACV] yielded a CC50 [1] greater than 100 µg/mL.

In the case of `O=C(O[C@@H]1Cc2c(O)cc(O)cc2O[C@H]1c1ccc(O)c(O)c1)c1cc(O)c(O)c(O)c1` [CG, catechin-3 gallate], the Ki (Bcl-xL) is given as “nanomolar range”.

In the case of `O=C(O[C@@H]1Cc2c(O)cc(O)cc2O[C@@H]1c1cc(O)c(O)c(O)c1)c1cc(O)c(O)c(O)c1` [EGCG, (−)-Epigallocatechingallate], the “Effect of pH on activity against HSV-1 (FIG. 9)” value (HSV-1) was “greater antiviral activity at the more alkaline pH's”, the “Effect of pH on activity against HSV-2 (FIG. 9)” value (HSV-2) was “greater antiviral activity at the more alkaline pH's” and the EC-50 (HSV-1 (herpes simplex 1); HSV-1) was 24.1 µg/mL. For the same molecule, the EC-90 (HSV-1 (herpes simplex 1); HSV-1) was 121 µg/mL, the CC-50 (HSV-1 (herpes simplex 1); cytotoxicity in HSV-1 screen) was 857 µg/mL and the EC-50 (HSV-2 (herpes simplex 2); HSV-2) was 7.6 µg/mL. For the same molecule, the EC-90 (HSV-2 (herpes simplex 2); HSV-2) was 98.6 µg/mL, the CC-50 (HSV-2 (herpes simplex 2); cytotoxicity in HSV-2 screen) was 857 µg/mL and the EC-50 ([2]; HCMV) was 6.9 µg/mL. For the same molecule, the EC-90 ([2]; HCMV) was 40 µg/mL, the CC-50 ([2]; cytotoxicity in HCMV screen) was greater than 40 µg/mL and the EC-50 ([3]; VZV) was 4.1 µg/mL. For the same molecule, the EC-90 ([3]; VZV) was greater than 40 µg/mL, the CC-50 ([3]; cytotoxicity in VZV screen) was greater than 40 µg/mL and the “Killing of bacteria (cfu)” value ([4]; pH 7.5) was “effective at killing nearly all the bacteria”. The “Killing of bacteria (cfu)” value ([4]; pH 8.5) was “effective at killing nearly all the bacteria”, the “Bactericidal effect (cfu)” value ([4]; 0.4-0.8% EGCG, pH 6, 7.5 and 8.5) was “strongly bactericidal” and the “Effectiveness (cfu)” value ([4]; concentrations higher than 0.4-0.8% EGCG) was “less effective”. For the same molecule, the “Open circuit potential, initial” value ([5]; 0.1 M phosphate buffer with 0.1 M KCl, pH 6.0) was 220 mV, the “320 nm/270 nm” value [5, 9] was 0.174 and the “Absorbance 270 nm” value [5, 9] was 0.448. For the same molecule, the “Absorbance 320 nm” value [5, 9] was 0.078, the “320 nm/270 nm” value [5, 10] was 0.178 and the “Absorbance 270 nm” value [5, 10] was 0.471. For the same molecule, the “Absorbance 320 nm” value [5, 10] was 0.084, the “320 nm/270 nm” value [5, 11] was 0.189 and the “Absorbance 270 nm” value [5, 11] was 0.438. For the same molecule, the “Absorbance 320 nm” value [5, 11] was 0.083, the “320 nm/270 nm” value [5, 12] was 0.170 and the “Absorbance 270 nm” value [5, 12] was 0.424. For the same molecule, the “Absorbance 320 nm” value [5, 12] was 0.072, the “320 nm/270 nm” value [5, 13] was 0.256 and the “Absorbance 270 nm” value [5, 13] was 0.418. For the same molecule, the “Absorbance 320 nm” value [5, 13] was 0.107, the “320 nm/270 nm” value [5, 14] was 0.396 and the “Absorbance 270 nm” value [5, 14] was 0.432. The “Absorbance 320 nm” value [5, 14] was 0.171, the “320 nm/270 nm” value [5, 15] was 0.467 and the “Absorbance 270 nm” value [5, 15] was 0.422. The “Absorbance 320 nm” value [5, 15] was 0.197, the “320 nm/270 nm” value [5, 16] was 0.522 and the “Absorbance 270 nm” value [5, 16] was 0.429. For the same molecule, the “Absorbance 320 nm” value [5, 16] was 0.224, the “320 nm/270 nm” value [5, 17] was 0.533 and the “Absorbance 270 nm” value [5, 17] was 0.430. The “Absorbance 320 nm” value [5, 17] was 0.229, the “320 nm/270 nm” value [5, 18] was 0.538 and the “Absorbance 270 nm” value [5, 18] was 0.426. The “Absorbance 320 nm” value [5, 18] was 0.229, the “320 nm/270 nm” value [5, 19] was 0.546 and the “Absorbance 270 nm” value [5, 19] was 0.436. The “Absorbance 320 nm” value [5, 19] was 0.238, the “Stability of electrochemically oxidized solution (320 nm absorbance)” value ([5]; pH 6) was “stable for over two days” and the “Oxidation of control sample” value ([5]; pH 6.0, no potential, uncovered, 23 hours) was “did not oxidize”. The “Stability of pH-modified solution after electrochemical oxidation (FIG. 14)” value ([5]; pH 6.26) was “relatively stable after 7 days”, the “Stability of 320 nm oxidation peak” value [6] was “disappears within hours” and the “Decay time of semiquinone EPR signal” value ([6]; after basification, 0.2 M MgCl2, no electrochemical modulation) was 30 min. For the same molecule, the “CC50, TOXICITY Neutral Red Uptake” value (host cells) was “CC50 > 200”, the Ki (Bcl-xL) was “nanomolar range” and the “Oxidation peak potential, first range” value [7, 20] was 105 mV. The “Oxidation peak potential, second range” value [7, 20] was 213 mV, the Reduction potential ([7]; pH 7, versus a normal hydrogen electrode) was 430 mV and the “Time to complete degradation” value [8] was 6 h.

For `O=C(O[C@@H]1Cc2c(O)cc(O)cc2O[C@H]1c1cc(O)c(O)c(O)c1)c1cc(O)c(O)c(O)c1` [GCG, gallocatechin-3 gallate], the Ki (Bcl-xL) is listed as “nanomolar range”.

In the case of `O=C(O[C@@H]1Cc2c(O)cc(O)cc2O[C@@H]1c1cc(O)c(O)c(O)c1)c1cc(O)c(O)c(O)c1` [Reduced EGCG], the “Cell Titer 96 assay reading, mean ± SD” value (Vero cells; 50 μM, 24 hours after addition) was 0.753 ± 0.027, the “Cell Titer 96 assay reading, mean ± SD” value (Vero cells; 50 μM, 48 hours after addition) was 0.750 ± 0.033 and the “Cell Titer 96 assay reading, mean ± SD” value (Vero cells; 75 μM, 24 hours after addition) was 0.685 ± 0.052. The “Cell Titer 96 assay reading, mean ± SD” value (Vero cells; 75 μM, 48 hours after addition) was 0.706 ± 0.026, the “Cell Titer 96 assay reading, mean ± SD” value (Vero cells; 100 μM, 24 hours after addition) was 0.700 ± 0.043 and the “Cell Titer 96 assay reading, mean ± SD” value (Vero cells; 100 μM, 48 hours after addition) was 0.705 ± 0.019.

In the case of epicatechin-3 gallate [ECG], the Ki (Bcl-xL) is listed as “nanomolar range”.
